US7524849B2, “5-arylpyrimidines as anticancer agents” (Wyeth Holdings Corporation, priority 2003, dated 2009)

Legend:
Format in all cases: cell-based, human
HL-60/ADR cells = assay: MTS cytotoxicity test with HL-60/ADR cells (MRP1); conditions: for IC50: HL-60/ADR cells, mean of 2 experiments; for Ratio: IC50 on HL-60/ADR cells/IC50 on HL-60 cells
Source text: (§1) Human cancer cell lines, unless otherwise noted, are obtained from the American Type Culture Collection (Rockville, Md.). The following drug-sensitive parental cell lines, and their derived drug-resistant counterparts, are obtained from the originators as listed: (a) S1 (parental line from a subclone of human colon carcinoma line LS174T) and derived S1-M1-3.2 (herein called S1-M1) which expresses the MXR drug transporter protein, are provided by Dr. L. Greenberger, Wyeth Research (Rabindran, S. K., He, H., Singh, M., Brown, E., Collins, K. I., Annable, T., and Greenberger, L. M. Reversal of a novel multidrug resistance mechanism in human colon carcinoma cells by fumitremorgin C. Cancer Res., 58: 5850-5858, 1998); (b) parental HL-60 human promyelocytic leukemia line and derived HL-60/ADR, which expresses the MRP1 drug transporter protein, are provided by Dr. M. Center, University of Kansas (McGrath, T., and Center, M. S. Adriamycin resistance in HL60 cells in the absence of detectable P-glycoprotein. Biochem. Biophys. […] J. Biol. Chem., 261: 7762-7770, 1986) via Dr. L. Greenberger, Wyeth Research.
(§2) The assay, which is sold in kit form by Promega (Madison, Wis.; CellTiter 96 AQueous Non-Radioactive Cell Proliferation Assay), is based on the conversion by viable cells, but not by dead cells, of the tetrazolium salt, MTS (3-(4,5-dimethylthiazol-2-yl)-5-(3-carboxymethoxyphenyl)-2-(4-sulphophenyl)-2H-tetrazolium, inner salt), into a water-soluble colored formazan which is detected by spectrophotometry. Compounds are tested at nine concentrations, in order to determine IC50 values. For the test procedure, cells are harvested by trypsinization, washed, counted and distributed to wells of 96-well flat-bottom microtiter plates at 1000 cells per well in 200 μL of medium. In addition, one row of wells on a separate plate receives cells as above (“time 0” plate). All plates are incubated at 37° in humidified 5% CO2 in air for about 24 hr.
(§3) On day 2, compounds for test are diluted and added to wells. Compounds are dissolved in DMSO at 10 mg/mL. For each compound, nine serial 2-fold dilutions are prepared in DMSO. Ten μL of each dilution in DMSO are transferred to 100 μL of medium, mixed well, and then 5 μL of this dilution are transferred in quadruplicate to wells containing cells. […] Plates are returned to the incubator for three days. At the time of drug addition to the experimental plates, the MTS assay is run on the “time 0” plate. This produces the “time 0 MTS value” which is related to the number of viable cells per well at the time of drug addition.
(§4) After three days of culture with test compounds (day 5 overall), the MTS assay is done on all wells of the experimental plates. The absorbance values of the quadruplicate sample wells are averaged and divided by the average of the “time 0” values. […] The nine values for each compound are plotted against concentration, and the concentration that produces a relative color yield half way between the maximum and minimum is taken as the IC50 value.
(§5) HL-60/ADR cells overexpress the multidrug resistance protein MRP1 which mediates resistance to some chemotherapeutics (Gottesman, M. M., Fojo, T., and Bates, S. E. Multidrug resistance in cancer: role of ATP-dependent transporters. Nature Rev. Cancer, 2: 48-58, 2002). The IC50 values of representative examples of this invention, as well as reference compounds, on HL-60/ADR are compared to values on the sensitive parental HL-60 line.

COLO 205 cells = assay: MTS cytotoxicity test with COLO 205 cells; conditions: three days with compound
How it was run: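 COLO 205 human colon carcinoma cells, 1000/well, exposed for three days at 37 °C to nine 2-fold dilutions, top final concentration typically 5 μM. MTS formazan absorbance normalised to a time-0 plate; IC50 taken as concentration halfway between untreated maximum and high-drug minimum.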

HL-60 cells = assay: MTS cytotoxicity test with HL-60 cells; conditions: mean of 2 experiments
Source text: as §1, §2, §3, §4, §5

S1 cells = assay: MTS cytotoxicity test with S1 cells; conditions: mean of 2 experiments
Source text: as §1, §2, §3, §4
as §5, with “S1-M1” for “HL-60/ADR”, “MXR transporter” for “multidrug resistance protein MRP1”, “Miltidrug” for “Multidrug”, “S1” for “HL-60”

KB-8-5 cells = assay: MTS cytotoxicity test with KB-8-5 cells (moderate P-glycoprotein); conditions: for IC50: KB 8.5 cells, mean of 2 experiments; for Ratio 8.5/KB: IC50 on KB 8.5 cells/IC50 on KB cells
Source text: as §1, §2, §3, §4

S1-M1 cells = assay: MTS cytotoxicity test with S1-M1 cells (MXR); conditions: for IC50: S1-M1 cells, mean of 2 experiments; for Ratio: IC50 on S1-M1 cells/IC50 on S1 cells
Source text: as §1, §2, §3, §4
as §5, with “S1-M1” for “HL-60/ADR”, “MXR transporter” for “multidrug resistance protein MRP1”, “Miltidrug” for “Multidrug”, “S1” for “HL-60”

KB cells = assay: MTS cytotoxicity test with KB cells; conditions: mean of 2 experiments
Source text: as §1, §2, §3, §4

For `CC[C@]1(O)C[C@H]2CN(CCc3c([nH]c4ccccc34)[C@@](C(=O)OC)(c3cc4c(cc3OC)N(C=O)[C@H]3[C@@](O)(C(=O)OC)[C@H](OC(C)=O)[C@]5(CC)C=CCN6CC[C@]43[C@@H]65)C2)C1` [Vincristine, reference compound], which IC50 (HL-60/ADR cells; Homo sapiens, HL60/ADR) is on record?
Its IC50 is 24 nM.

And the Ratio (HL-60/ADR cells)?
The Ratio was 9.6.

And the IC50 (COLO 205 cells; Homo sapiens, 72 h)?
The IC50 was 2.6 nM.

And the IC50 (HL-60 cells; Homo sapiens)?
The IC50 was 2.5 nM.

And the IC50 (S1 cells; Homo sapiens)?
The IC50 was 14 nM.

And the IC50 (KB-8-5 cells; Homo sapiens)?
The IC50 was 58 nM.

What about the “Ratio 8.5/KB” value (KB-8-5 cells) of the same molecule?
The value was 26.

And the IC50 (S1-M1 cells; Homo sapiens)?
The IC50 was 7.9 nM.

And the Ratio (S1-M1 cells)?
Its Ratio is 0.6.

And the IC50 (KB cells; Homo sapiens)?
The IC50 was 2.2 nM.

Which IC50 (HL-60/ADR cells) does the source give for `CNCCCOc1cc(F)c(-c2c(Cl)nc(-c3cnccn3)nc2N[C@@H](C)C(F)(F)F)c(F)c1.Cl` [Example 24a, 6-Chloro-5-{2,6-difluoro-4-[3-(methylamino)propoxy]phenyl}-2-pyrazin-2-yl-N-[(1S)-2,2,2-trifluoro-1-methylethyl]pyrimidin-4-amine hygrogen chloride] here?
The IC50 was 6.3 nM.

And the Ratio (HL-60/ADR cells)?
The Ratio was 1.0.

And the IC50 (COLO 205 cells)?
Its IC50 is 8.9 nM.

And the IC50 (HL-60 cells)?
Its IC50 is 6.6 nM.

And the IC50 (S1 cells)?
The IC50 was 20 nM.

What about the “Ratio 8.5/KB” value (KB-8-5 cells) of the same molecule?
Its value is 3.5.

And the IC50 (KB-8-5 cells)?
The IC50 was 24 nM.

And the Ratio (S1-M1 cells)?
The Ratio was 2.7.

What about the IC50 (S1-M1 cells) of the same molecule?
Its IC50 is 53 nM.

What about the IC50 (KB cells) of the same molecule?
The IC50 was 7 nM.

Which IC50 (HL-60/ADR cells; Homo sapiens, HL60/ADR) does the source give for `CNCCCOc1cc(F)c(-c2c(Cl)nc(-n3cccn3)nc2N[C@@H](C)C(F)(F)F)c(F)c1.Cl` [Example 32a, 6-Chloro-5-{2,6-difluoro-4-[3-(methylamino)propoxy]phenyl}-2-(1H-pyrazol-1-yl)-N-[(1S)-2,2,2-trifluoro-1-methylethyl)pyrimidin-4-amine Hydrogen Chloride] here?
Its IC50 is 2.2 nM.

What about the Ratio (HL-60/ADR cells) of the same molecule?
Its Ratio is 0.8.

And the IC50 (COLO 205 cells; Homo sapiens, 72 h)?
Its IC50 is 2.4 nM.

And the IC50 (HL-60 cells; Homo sapiens)?
The IC50 was 2.6 nM.

And the IC50 (S1 cells; Homo sapiens)?
Its IC50 is 9.9 nM.

And the IC50 (KB-8-5 cells; Homo sapiens)?
Its IC50 is 32 nM.

And the “Ratio 8.5/KB” value (KB-8-5 cells)?
Its value is 14.

And the IC50 (S1-M1 cells; Homo sapiens)?
The IC50 was 8.7 nM.

And the Ratio (S1-M1 cells)?
The Ratio was 0.9.

And the IC50 (KB cells; Homo sapiens)?
Its IC50 is 2.4 nM.

`CNCCCOc1cc(F)c(-c2c(Cl)nc(-c3ccccn3)nc2N[C@@H](C)C(F)(F)F)c(F)c1.Cl` [Example 29a, 6-Chloro-5-{2,6-difluoro-4-[3-(methylamino)propoxy]phenyl}-2-pyridin-2-yl-N-[(S)-2,2,2-trifluoro-1-methylethyl]pyrimidin-4-amine hydrogen chloride] was tested. Which IC50 (HL-60/ADR cells; Homo sapiens, HL60/ADR) did it give?
The IC50 was 6.8 nM.

What about the Ratio (HL-60/ADR cells) of the same molecule?
The Ratio was 1.0.

And the IC50 (COLO 205 cells; Homo sapiens, 72 h)?
The IC50 was 5.2 nM.

And the IC50 (HL-60 cells; Homo sapiens)?
Its IC50 is 6.9 nM.

And the IC50 (S1 cells; Homo sapiens)?
Its IC50 is 7.9 nM.

And the IC50 (KB-8-5 cells; Homo sapiens)?
The IC50 was 21 nM.

And the “Ratio 8.5/KB” value (KB-8-5 cells)?
Its value is 3.4.

And the IC50 (S1-M1 cells; Homo sapiens)?
The IC50 was 21 nM.

And the Ratio (S1-M1 cells)?
The Ratio was 2.7.

And the IC50 (KB cells; Homo sapiens)?
The IC50 was 6.2 nM.

For `CC(=O)O[C@H]1C(=O)[C@@]2(C)[C@H]([C@H](OC(=O)c3ccccc3)[C@]3(O)C[C@H](OC(=O)[C@H](O)[C@@H](NC(=O)c4ccccc4)c4ccccc4)C(C)=C1C3(C)C)[C@]1(OC(C)=O)CO[C@@H]1C[C@@H]2O` [Paclitaxel, reference compound], which IC50 (HL-60/ADR cells; Homo sapiens, HL60/ADR) is on record?
Its IC50 is 3.5 nM.

What about the IC50 (COLO 205 cells; Homo sapiens, 72 h) of the same molecule?
The IC50 was 3.3 nM.

What about the IC50 (HL-60 cells; Homo sapiens) of the same molecule?
Its IC50 is 3 nM.

And the IC50 (S1 cells; Homo sapiens)?
Its IC50 is 4.2 nM.

What about the IC50 (S1-M1 cells; Homo sapiens) of the same molecule?
Its IC50 is 2.7 nM.
